This is an account of results in US9801960B2, “Probe for a biological specimen and labelling method and screening method using the probe” (CANON KABUSHIKI KAISHA, priority 2008, dated 2017).

Tested on in one series: not listed separately
Put plainly: Excitation and fluorescence emission wavelength measurement. In kind it is physicochemical. On the set-up: Stokes shift (λem − λex): unit not given here. To be noted: aqueous solution: 10 mg/mL solution in DMSO diluted 500-fold with purified water. On the procedure: It should be noted that the excitation wavelength and the fluorescence emission wavelength of the staining compound were determined by measuring an aqueous solution, which had been obtained by diluting 500-fold a 10 mg/mL solution of the staining compound in DMSO with purified water, with a fluorescence spectrophotometer FL 4500 manufactured by Hitachi High-Technologies Corporation.
Take `O=C(O)CCN1C(=O)/C(=C\c2cc(Br)c3c(c2)C2CCCC2N3c2ccc(Br)cc2)SC1=S` (stereo not drawn) [Dye 29]: the Excitation wavelength λex worked out at 518 nm, the Fluorescence emission wavelength λem was 575 nm and the “Stokes shift (λem − λex)” value is given as 57.

For `CCN1C(=O)/C(=c2\s/c(=C/c3ccc4c(c3)C3CCCC3N4c3ccccc3)c(=O)n2CC(=O)O)SC1=S` (stereo not drawn) [Dye 30], the Excitation wavelength λex is 502 nm, the Fluorescence emission wavelength λem stood at 644 nm and the “Stokes shift (λem − λex)” value came out at 142.

Regarding `COc1ccc(N2c3ccc(/C=C/c4sc5ccccc5[n+]4CC(=O)O)cc3C3CCCC32)cc1` (stereo not drawn) [Dye 31], the Excitation wavelength λex was determined as 560 nm, the Fluorescence emission wavelength λem stood at 677 nm and the “Stokes shift (λem − λex)” value turned out to be 117.

On to `COc1cc(/C=C2\C(=O)ON=C2c2ccccc2)cc2c1N(c1ccccc1)C1CCCC21` (stereo not drawn) [Dye 34], for which the Excitation wavelength λex amounted to 570 nm, the Fluorescence emission wavelength λem is 657 nm and the “Stokes shift (λem − λex)” value worked out at 87.

With `CC1(C)C(/C=C/c2ccc3c(c2)C2CCCC2N3c2ccc(C=C(c3ccccc3)c3ccccc3)cc2)=[N+](CCC(=O)O)c2ccccc21` (stereo not drawn) [Dye 35], the Excitation wavelength λex turned out to be 611 nm, the Fluorescence emission wavelength λem turned out to be 720 nm and the “Stokes shift (λem − λex)” value is reported as 109.

In the case of `COc1ccc(N2c3ccc(/C=C4/SC(=S)N(CC(=O)O)C4=O)cc3C3CCCC32)cc1` (stereo not drawn) [Dye 37], the Excitation wavelength λex was 571 nm, the Fluorescence emission wavelength λem is 648 nm and the “Stokes shift (λem − λex)” value was 77.

As for `CCN1C(=O)/C(=c2\s/c(=C/c3ccc4c(c3)C3CCCC3N4c3ccc(OC)cc3)c(=O)n2CC(=O)O)SC1=S` (stereo not drawn) [Dye 38], the Excitation wavelength λex was 582 nm, the Fluorescence emission wavelength λem is 679 nm and the “Stokes shift (λem − λex)” value is 97.

The next series relates to Zebrafish juveniles. Put plainly: In vivo labelling of Zebrafish juveniles with probe for biological specimen. On the set-up: key to Staining property: +++: stained; −: no stained; key to Fluorescence sensitivity: +++: strongly observed; ++: moderately observed; +: weakly observed; −: no stained. To be noted: 10 ng/mL in water, 1 hour, stereoscopic microscope. On the procedure:
Five juveniles of Zebrafish were put into one well of a well plate together with rearing water. After rearing water had been discharged, 1 mL of distilled water was added to the well, and a solution of a staining compound (1) in DMSO was further added thereto so as to achieve a concentration of 10 ng/mL, followed by gentle stirring (pipetting). Further, Egg Water was prepared by dissolving artificial seawater SEALIFE (manufactured by Marinetech Co., Ltd.) in distilled water at a concentration of 60 mg/L. After the whole had been left to stand for 1 hour, distilled water in the well was discharged and replaced by 1 mL of fresh Egg Water. In addition, such an operation that Egg Water was discharged and replaced by 1 mL of fresh Egg Water was repeated twice. One of the juveniles was taken out from the well onto a dish, supplemented with 100 μL of a 3% methylcellulose aqueous solution to fix the movement of the juvenile, and photographed with a stereoscopic microscope (MZ10F: manufactured by Leica Microsystems K.K.).
The same operation as that in Example 1 was performed except that the staining compound (1) used in Example 1 was changed to any one of the staining compounds described in Table 1.
The same operation as that in Example 1 was performed except that the staining compound (1) used in Example 1 was changed to any one of indocyanine green (ICG) and fluorescein.
The staining property of each of the staining compounds of Labelled Examples 1 to 78 and Labelled Comparative Examples 1 and 2 was visually evaluated (+++: stained and −: no stained).
The fluorescence intensity of each of the staining compounds of Labelled Examples 1 to 78 and Labelled Comparative Examples 1 and 2 was visually evaluated (+++: strongly observed, ++: moderately observed, +: weakly observed, and −: no stained).
Turning to `O=C(O)CCN1C(=O)/C(=C\c2cc(Br)c3c(c2)C2CCCC2N3c2ccc(Br)cc2)SC1=S` (stereo not drawn) [Dye 29], the “Site(s) to be labelled” value was “blood vessel, gallbladder, and liver”.

`COc1ccc(N2c3ccc(/C=C/c4sc5ccccc5[n+]4CC(=O)O)cc3C3CCCC32)cc1` (stereo not drawn) [Dye 31]: the “Site(s) to be labelled” value is “nose”.

`COc1cc(/C=C2\C(=O)ON=C2c2ccccc2)cc2c1N(c1ccccc1)C1CCCC21` (stereo not drawn) [Dye 34]: the “Site(s) to be labelled” value was “nose”.

As to `CC1(C)C(/C=C/c2ccc3c(c2)C2CCCC2N3c2ccc(C=C(c3ccccc3)c3ccccc3)cc2)=[N+](CCC(=O)O)c2ccccc21` (stereo not drawn) [Dye 35], the “Site(s) to be labelled” value is “nose”.

As to `COc1ccc(N2c3ccc(/C=C4/SC(=S)N(CC(=O)O)C4=O)cc3C3CCCC32)cc1` (stereo not drawn) [Dye 37], the “Site(s) to be labelled” value is given as “gallbladder”.

As for `CCN1C(=O)/C(=c2\s/c(=C/c3ccc4c(c3)C3CCCC3N4c3ccc(OC)cc3)c(=O)n2CC(=O)O)SC1=S` (stereo not drawn) [Dye 38], the “Site(s) to be labelled” value is “gastrointestinal tract”.

The series is the same for the next values; noted with them: 10 ng/mL, 1 hour, fluorescence intensity visually evaluated.
With `O=C(O)CCN1C(=O)/C(=C\c2cc(Br)c3c(c2)C2CCCC2N3c2ccc(Br)cc2)SC1=S` (stereo not drawn) [Dye 29], the Fluorescence sensitivity result is given as “+++”.

In the case of `CCN1C(=O)/C(=c2\s/c(=C/c3ccc4c(c3)C3CCCC3N4c3ccccc3)c(=O)n2CC(=O)O)SC1=S` (stereo not drawn) [Dye 30], the Fluorescence sensitivity entry is “+++”.

For the molecule `COc1ccc(N2c3ccc(/C=C/c4sc5ccccc5[n+]4CC(=O)O)cc3C3CCCC32)cc1` (stereo not drawn) [Dye 31], the Fluorescence sensitivity result is “+++”.

Regarding `COc1cc(/C=C2\C(=O)ON=C2c2ccccc2)cc2c1N(c1ccccc1)C1CCCC21` (stereo not drawn) [Dye 34], the Fluorescence sensitivity entry is listed as “+++”.

On to `CC1(C)C(/C=C/c2ccc3c(c2)C2CCCC2N3c2ccc(C=C(c3ccccc3)c3ccccc3)cc2)=[N+](CCC(=O)O)c2ccccc21` (stereo not drawn) [Dye 35], for which the Fluorescence sensitivity result is “+++”.

For the molecule `COc1ccc(N2c3ccc(/C=C4/SC(=S)N(CC(=O)O)C4=O)cc3C3CCCC32)cc1` (stereo not drawn) [Dye 37], the Fluorescence sensitivity entry is “+++”.

`CCN1C(=O)/C(=c2\s/c(=C/c3ccc4c(c3)C3CCCC3N4c3ccc(OC)cc3)c(=O)n2CC(=O)O)SC1=S` (stereo not drawn) [Dye 38]: the Fluorescence sensitivity entry is listed as “+++”.

Staying with this series, now noted: 10 ng/mL, 1 hour, visually evaluated.
As for `O=C(O)CCN1C(=O)/C(=C\c2cc(Br)c3c(c2)C2CCCC2N3c2ccc(Br)cc2)SC1=S` (stereo not drawn) [Dye 29], the Staining property result is “+++”.

For the molecule `CCN1C(=O)/C(=c2\s/c(=C/c3ccc4c(c3)C3CCCC3N4c3ccccc3)c(=O)n2CC(=O)O)SC1=S` (stereo not drawn) [Dye 30], the Staining property result was “+++”.

Take `COc1ccc(N2c3ccc(/C=C/c4sc5ccccc5[n+]4CC(=O)O)cc3C3CCCC32)cc1` (stereo not drawn) [Dye 31]: the Staining property result was “+++”.

As to `COc1cc(/C=C2\C(=O)ON=C2c2ccccc2)cc2c1N(c1ccccc1)C1CCCC21` (stereo not drawn) [Dye 34], the Staining property result was “+++”.

As for `CC1(C)C(/C=C/c2ccc3c(c2)C2CCCC2N3c2ccc(C=C(c3ccccc3)c3ccccc3)cc2)=[N+](CCC(=O)O)c2ccccc21` (stereo not drawn) [Dye 35], the Staining property result is on record as “+++”.

On to `COc1ccc(N2c3ccc(/C=C4/SC(=S)N(CC(=O)O)C4=O)cc3C3CCCC32)cc1` (stereo not drawn) [Dye 37], for which the Staining property entry was “+++”.

For the molecule `CCN1C(=O)/C(=c2\s/c(=C/c3ccc4c(c3)C3CCCC3N4c3ccc(OC)cc3)c(=O)n2CC(=O)O)SC1=S` (stereo not drawn) [Dye 38], the Staining property result is listed as “+++”.

Tested on in a further series: not listed separately
The experiment in a line: Storage stability of staining compound solution in DMSO. Format: physicochemical. To be noted: 10 ng/mL in DMSO, closed glass container, normal temperature, 1 month; rate of change of absorbance and fluorescence intensity. On the procedure:
A 10 ng/mL solution of each of the staining compounds of Labelled Examples 1 to 78 and Labelled Comparative Examples 1 and 2 in DMSO was prepared, charged into a well-closed container made of glass, and left to stand still at normal temperature for 1 month. The absorbance and the fluorescence intensity at the time of the start of a storage stability test were measured at a given wavelength, and their rates of change were examined (+++: rates of change of the absorbance and the fluorescence intensity are less than 5%, and thus, the storage stability is highly excellent; ++: rates of change of the absorbance and fluorescence intensity are 5 to 15%, and thus, the storage stability is excellent; and −: rates of change of the absorbance and fluorescence intensity are more than 15%, and thus, the storage stability is poor).
Turning to `O=C(O)CCN1C(=O)/C(=C\c2cc(Br)c3c(c2)C2CCCC2N3c2ccc(Br)cc2)SC1=S` (stereo not drawn) [Dye 29], the Storage stability result is “+++ (rates of change of the absorbance and the fluorescence intensity are less than 5%, and thus, the storage stability is highly excellent)”.

Regarding `CCN1C(=O)/C(=c2\s/c(=C/c3ccc4c(c3)C3CCCC3N4c3ccccc3)c(=O)n2CC(=O)O)SC1=S` (stereo not drawn) [Dye 30], the Storage stability result was “+++ (rates of change of the absorbance and the fluorescence intensity are less than 5%, and thus, the storage stability is highly excellent)”.

Turning to `COc1ccc(N2c3ccc(/C=C/c4sc5ccccc5[n+]4CC(=O)O)cc3C3CCCC32)cc1` (stereo not drawn) [Dye 31], the Storage stability entry is “+++ (rates of change of the absorbance and the fluorescence intensity are less than 5%, and thus, the storage stability is highly excellent)”.

`COc1cc(/C=C2\C(=O)ON=C2c2ccccc2)cc2c1N(c1ccccc1)C1CCCC21` (stereo not drawn) [Dye 34]: the Storage stability result is “+++ (rates of change of the absorbance and the fluorescence intensity are less than 5%, and thus, the storage stability is highly excellent)”.

Turning to `CC1(C)C(/C=C/c2ccc3c(c2)C2CCCC2N3c2ccc(C=C(c3ccccc3)c3ccccc3)cc2)=[N+](CCC(=O)O)c2ccccc21` (stereo not drawn) [Dye 35], the Storage stability result was “++ (rates of change of the absorbance and fluorescence intensity are 5 to 15%, and thus, the storage stability is excellent)”.

On to `COc1ccc(N2c3ccc(/C=C4/SC(=S)N(CC(=O)O)C4=O)cc3C3CCCC32)cc1` (stereo not drawn) [Dye 37], for which the Storage stability result was “++ (rates of change of the absorbance and fluorescence intensity are 5 to 15%, and thus, the storage stability is excellent)”.

Regarding `CCN1C(=O)/C(=c2\s/c(=C/c3ccc4c(c3)C3CCCC3N4c3ccc(OC)cc3)c(=O)n2CC(=O)O)SC1=S` (stereo not drawn) [Dye 38], the Storage stability entry is “+++ (rates of change of the absorbance and the fluorescence intensity are less than 5%, and thus, the storage stability is highly excellent)”.
